Test results from DBAASP.
≈ marks a conversion by molar mass, not a printed value. Values belong to the molecule of their own block, whether it stands above or below them.

Assays:
Experiment in all cases: ≥ marks a high value that may be exact or a test limit, other limits are often not marked, values filed in µg/mL are converted to µM
[1] = tested on: Bacillus cereus ATCC 14579
[2] = tested on: Escherichia coli ATCC 35218
[3] = tested on: Klebsiella pneumoniae ATCC 700603
[4] = tested on: Salmonella enterica subsp. enterica serovar Typhimurium ATCC 14028
[5] = tested on: Staphylococcus aureus ATCC 6538
[6] = tested on: Streptococcus mutans ATCC 25175
Escherichia coli C600 = tested on: Escherichia coli C600
[7] = tested on: Pseudomonas aeruginosa PAO1
[8] = tested on: Staphylococcus aureus 209P
[9] = tested on: Candida albicans ATCC 10231
Escherichia coli D31 = tested on: Escherichia coli D31
[10] = tested on: Pseudomonas aeruginosa ATCC 15442
[11] = tested on: Staphylococcus aureus ATCC 25923
[12] = tested on: Candida albicans ATCC 64550
[13] = tested on: Escherichia coli ATCC 25922
[14] = tested on: Staphylococcus aureus ATCC 29213
[15] = tested on: Staphylococcus epidermidis ATCC 12228
[16] = tested on: Escherichia coli DH5alpha
[17] = tested on: Pseudomonas aeruginosa ATCC 27853
Staphylococcus xylosus = tested on: Staphylococcus xylosus
[18] = tested on: Candida albicans CGMCC 2.2086
Candida albicans = tested on: Candida albicans
[19] = tested on: Candida parapsilosis CGMCC 2.3989
[20] = tested on: Candida tropicalis CGMCC 2.1975
[21] = tested on: Enterococcus faecalis ATCC 29212
Escherichia coli UB1005 = tested on: Escherichia coli UB1005
[22] = tested on: Salmonella enterica subsp. enterica serovar Choleraesuis CVCC 503
[23] = tested on: Salmonella enterica subsp. enterica serovar Typhimurium C77-31
[24] = tested on: Staphylococcus aureus ATCC 43300
[25] = tested on: Staphylococcus aureus ATCC 33591
[26] = tested on: Staphylococcus aureus ATCC 700699

Compound: CC[C@H](C)[C@H](N)C(=O)N[C@@H](CC(N)=O)C(=O)N[C@@H](CC(C)C)C(=O)N[C@@H](CCCCN)C(=O)N[C@@H](C)C(=O)N[C@H](C(=O)N[C@@H](C)C(=O)N[C@@H](C)C(=O)N[C@@H](CC(C)C)C(=O)N[C@H](C(=O)N[C@@H](CCCCN)C(=O)N[C@@H](CCCCN)C(=O)N[C@H](C(=O)O)C(C)C)C(C)C)[C@@H](C)CC [INLKAIAALVKKV]
MIC [1]: ≥ 41.5 µM
MIC [2]: 8.52 µM (≈ 11.8 µg/mL)
MIC [3]: 13.3 µM (≈ 18.4 µg/mL)
MIC [4]: 12.2 µM (≈ 16.8 µg/mL)
MIC [5]: 43.2 µM (≈ 59.7 µg/mL)
MIC [6]: 23.6 µM (≈ 32.6 µg/mL)

Compound: CC(C)C[C@H](NC(=O)[C@H](C)NC(=O)[C@H](CC(N)=O)NC(=O)[C@H](Cc1ccccc1)NC(=O)[C@@H](NC(=O)[C@@H](NC(=O)CN)C(C)C)[C@@H](C)O)C(=O)N[C@@H](CCCCN)C(=O)NCC(=O)N[C@H](C(=O)N[C@@H](C)C(=O)N[C@@H](CCCCN)C(=O)N[C@H](C(=O)N[C@H](C(=O)N[C@@H](C)C(=O)N[C@@H](C)C(=O)N[C@@H](CCC(N)=O)C(=O)N[C@@H](CC(C)C)C(=O)N[C@@H](CC(C)C)C(=O)N[C@@H](CCCCN)C(=O)N[C@H](C(=O)N[C@@H](C)C(=O)N[C@@H](CCCN=C(N)N)C(N)=O)[C@@H](C)O)C(C)C)[C@@H](C)O)C(C)C [GVTFNALKGVAKTVAAQLLKTAR]
MIC [9]: > 100 µM
MIC (Escherichia coli D31): ≥ 64 µM
MIC [10]: ≥ 100 µM
MIC [11]: 16 µM (≈ 37.7 µg/mL)
MIC [6]: ≥ 100 µM

Compound: CC[C@H](C)[C@H](NC(=O)[C@H](CC(C)C)NC(=O)[C@@H](NC(=O)[C@H](CC(C)C)NC(=O)[C@@H](NC(=O)[C@H](CC(C)C)NC(=O)[C@@H](NC(=O)[C@H](CCCCN)NC(=O)[C@H](CCCN=C(N)N)NC(=O)[C@@H](N)CCCCN)[C@@H](C)CC)[C@@H](C)CC)[C@@H](C)CC)C(=O)N[C@@H](CC(C)C)C(=O)O [KRKILILILIL]
MIC [16]: ≥ 64 µM
MIC (Staphylococcus xylosus): ≥ 64 µM

Compound: NCCCC[C@H](NC(=O)[C@H](CCCN=C(N)N)NC(=O)[C@H](CCCCN)NC(=O)CNC(=O)[C@H](CCCCN)NC(=O)[C@H](CCCN=C(N)N)NC(=O)[C@@H](N)CCCCN)C(=O)O [KRKGKRK]
MIC [16]: ≥ 64 µM
MIC (Staphylococcus xylosus): ≥ 64 µM

Compound: CC[C@H](C)[C@H](NC(=O)[C@H](CC(=O)O)NC(=O)[C@H](CCCCN)NC(=O)[C@H](C)NC(=O)[C@H](C)NC(=O)CNC(=O)[C@H](CCCCN)NC(=O)[C@H](CC(C)C)NC(=O)[C@@H](NC(=O)[C@H](CC(=O)O)NC(=O)[C@@H](NC(=O)[C@@H](NC(=O)CN)C(C)C)C(C)C)[C@@H](C)CC)C(=O)N[C@@H](C)C(=O)N[C@@H](C)C(=O)N[C@@H](Cc1cnc[nH]1)C(=O)N[C@@H](CC(C)C)C(=O)N[C@@H](C)C(=O)N[C@@H](CO)C(=O)N[C@@H](CCCCN)C(=O)N[C@H](C(=O)N[C@@H](CCSC)C(=O)N[C@@H](CC(N)=O)C(=O)N[C@@H](CCCCN)C(=O)N[C@@H](CC(C)C)C(N)=O)C(C)C [GVVDILKGAAKDIAAHLASKVMNKL]
MIC [13]: 12.5 µM (≈ 32 µg/mL)
MIC [3]: 50 µM (≈ 128 µg/mL)
MIC [17]: 100 µM (≈ 256 µg/mL)
MIC [14]: > 100 µM
MIC [25]: ≥ 100 µM
MIC [26]: ≥ 100 µM

Further lines, with some results ahead:

MIC (Escherichia coli C600): 3.13 µM (≈ 7.05 µg/mL)
MIC [7]: 6.25 µM (≈ 14.1 µg/mL)
MIC [8]: 3.13 µM (≈ 7.05 µg/mL)
Compound: CC(C)[C@@H]1NC(=O)CNC(=O)[C@H](CCCN=C(N)N)NC(=O)[C@H](C(C)C)NC(=O)[C@H](CCCN=C(N)N)NC(=O)[C@H](C)NC(=O)[C@H](Cc2ccc(O)cc2)NC(=O)[C@H](C(C)C)NC(=O)[C@@H](NC(=O)[C@H](Cc2c[nH]c3ccccc23)NC(=O)[C@@H](N)CCCN=C(N)N)CSSC[C@@H](C(=O)N[C@@H](CCCN=C(N)N)C(=O)O)NC(=O)[C@H](CCCN=C(N)N)NC(=O)[C@H](CCCN=C(N)N)NC(=O)[C@H](Cc2ccc(O)cc2)NC(=O)[C@H](CCCN=C(N)N)NC1=O [RWCVYARVRGVRYRRCR]

MIC [12]: ≥ 100 µM
MIC [13]: 90.1 µM (≈ 125 µg/mL)
MIC [14]: 11.5 µM (≈ 16 µg/mL)
MIC [15]: 5.77 µM (≈ 7.99 µg/mL)
Compound: CC(C)[C@H](NC(=O)[C@H](Cc1c[nH]c2ccccc12)NC(=O)[C@H](CCCCN)NC(=O)[C@@H](N)CCCN=C(N)N)C(=O)N[C@@H](Cc1c[nH]c2ccccc12)C(=O)N[C@@H](Cc1c[nH]c2ccccc12)C(=O)N[C@@H](CCCN=C(N)N)C(=O)N[C@@H](CC(N)=O)C(=O)N[C@@H](CCCN=C(N)N)C(N)=O [RKWVWWRNR]

MIC [16]: ≥ 64 µM
MIC [17]: 128 µM (≈ 235 µg/mL)
MIC (Staphylococcus xylosus): ≥ 64 µM
Compound: CC[C@H](C)[C@H](NC(=O)[C@H](CC(C)C)NC(=O)[C@@H](NC(=O)[C@H](CCCN=C(N)N)NC(=O)[C@H](CCCCN)NC(=O)[C@H](CCCN=C(N)N)NC(=O)[C@H](CCCCN)NC(=O)[C@H](CCCN=C(N)N)NC(=O)[C@H](CCCCN)NC(=O)[C@H](CCCN=C(N)N)NC(=O)[C@H](CCCCN)NC(=O)[C@H](CC(C)C)NC(=O)[C@@H](NC(=O)[C@@H](N)CC(C)C)[C@@H](C)CC)[C@@H](C)CC)C(=O)O [LILKRKRKRKRILI]

MIC [18]: ≥ 64 µM
MIC (Candida albicans): 45.3 µM (≈ 74.4 µg/mL)
MIC [19]: ≥ 64 µM
MIC [20]: 8 µM (≈ 13.1 µg/mL)
MIC [21]: > 64 µM
MIC (Escherichia coli UB1005): ≥ 32 µM
MIC [17]: 32 µM (≈ 52.6 µg/mL)
MIC [7]: 16 µM (≈ 26.3 µg/mL)
MIC [4]: 64 µM (≈ 105 µg/mL)
MIC [23]: ≥ 32 µM
MIC [11]: > 64 µM
MIC [14]: 64 µM (≈ 105 µg/mL)
MIC [24]: 64 µM (≈ 105 µg/mL)
MIC [15]: > 64 µM
Compound: CC(C)C[C@H](NC(=O)[C@H](CCCCN)NC(=O)[C@H](CCCCN)NC(=O)[C@H](CC(C)C)NC(=O)[C@H](CCCN=C(N)N)NC(=O)[C@H](CS)NC(=O)[C@H](C)NC(=O)[C@H](CC(C)C)NC(=O)[C@H](CCCCN)NC(=O)[C@H](CCCCN)NC(=O)[C@@H](N)CC(C)C)C(=O)N[C@@H](C)C(=O)N[C@@H](CS)C(=O)N[C@@H](CCCN=C(N)N)C(N)=O [LKKLACRLKKLACR]
MIC [22]: ≥ 32 µM

MIC [12]: ≥ 100 µM
Compound: NCCCC[C@H](NC(=O)[C@H](CCCCN)NC(=O)[C@H](CCCN=C(N)N)NC(=O)[C@H](CCCN=C(N)N)NC(=O)[C@H](Cc1ccc(O)cc1)NC(=O)[C@H](Cc1ccc(O)cc1)NC(=O)[C@H](CCCCN)NC(=O)[C@H](CCCN=C(N)N)NC(=O)CNC(=O)[C@@H](N)CCCN=C(N)N)C(=O)O [RGRKYYRRKK]
